We go through 54 compounds from ChEMBL document CHEMBL5321202, “Design, synthesis and anti-AD effects of dual inhibitor targeting glutaminyl cyclase/GSK-3β” (Eur J Med Chem, 2023).

The target in assay [1] is Glutaminyl-peptide cyclotransferase (Homo sapiens, UniProt Q16769). The assay can be described thus: Inhibition of human glutaminyl cyclase activity assessed as fluorescence using H-Gln-AMC substrate.
Assay [2] addresses Glycogen synthase kinase-3 beta (Homo sapiens, UniProt P49841). The assay can be described thus: Inhibition of GSK3beta (unknown origin) activity assessed as fluorescence intensity by ADP-Glo Kinase Assay.
Assay [3] is described as follows: In vivo inhibition of GSK3beta activity in cortex region of 3 x Tg-AD mouse model at 8 mg/kg, ip every 48 hrs once for 45 days by Western blot analysis relative to control. Also noted: scale not given: the % may be the effect or the level left. Conditions: time 45 day. The assay is classed as functional. (In western blotting, separated proteins are transferred to a membrane and probed.)

The next assay is filed under the species Mus musculus. Conditions: dose 8.0 mg/kg, route ip, time 45.0 day.

Calls of active or inactive are those of the source. The rule behind the calls is not given here.

Glycogen synthase kinase-3 beta, sequence (P49841 whole entry): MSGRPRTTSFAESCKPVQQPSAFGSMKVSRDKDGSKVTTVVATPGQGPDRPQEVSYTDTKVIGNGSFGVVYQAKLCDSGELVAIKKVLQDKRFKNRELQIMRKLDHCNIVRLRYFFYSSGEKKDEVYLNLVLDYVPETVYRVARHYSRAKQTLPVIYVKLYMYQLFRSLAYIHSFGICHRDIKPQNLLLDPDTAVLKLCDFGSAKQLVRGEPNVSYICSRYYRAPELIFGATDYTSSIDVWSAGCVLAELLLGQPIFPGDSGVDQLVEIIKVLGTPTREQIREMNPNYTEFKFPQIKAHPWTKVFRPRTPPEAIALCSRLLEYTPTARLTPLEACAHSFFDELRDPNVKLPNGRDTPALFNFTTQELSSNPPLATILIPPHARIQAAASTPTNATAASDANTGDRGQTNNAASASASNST
Glutaminyl-peptide cyclotransferase, sequence (Q16769 whole entry): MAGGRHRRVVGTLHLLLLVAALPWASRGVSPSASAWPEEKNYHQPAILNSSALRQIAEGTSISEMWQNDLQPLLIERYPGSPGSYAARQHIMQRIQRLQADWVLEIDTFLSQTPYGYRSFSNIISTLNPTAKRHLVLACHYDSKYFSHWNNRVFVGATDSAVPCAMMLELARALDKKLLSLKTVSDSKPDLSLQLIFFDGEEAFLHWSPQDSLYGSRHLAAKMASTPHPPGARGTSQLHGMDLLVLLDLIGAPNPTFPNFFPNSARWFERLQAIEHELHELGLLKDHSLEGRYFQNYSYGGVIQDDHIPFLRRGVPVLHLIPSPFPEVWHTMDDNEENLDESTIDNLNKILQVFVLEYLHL

Take `O=C1NC(=O)C(c2cn(CCCn3ccnc3)c3ccccc23)=C1c1c[nH]c2ccccc12`: the values for the IC50 in assay [1] and in assay [2] were 4.27 µM and 22.8 µM, respectively.
With `O=C1NC(=O)C(c2cn(CCCn3ccnc3)c3ccc(Br)cc23)=C1c1ccccc1F`, the 50% inhibitory concentration (IC50) (commonly the concentration that gives 50% inhibition) in assay [1] is 4.7 µM; in assay [2] it was 0.032 µM.
Turning to `O=C1NC(=O)C(c2cn(CCCn3ccnc3)c3ccc(Br)cc23)=C1c1ccccc1[N+](=O)[O-]`, the IC50 in assay [1] is 4.28 µM; in assay [2], 0.066 µM.
Turning to `O=C1NC(=O)C(c2cn(CCCn3ccnc3)c3cc(Br)ccc23)=C1c1ccc2ccccc2c1`, the half-maximal inhibitory concentration (IC50) in assay [1] was found to be 3.98 µM; in assay [2], 0.1 µM.
For `COc1ccc(C2=C(c3cn(CCCn4ccnc4)c4cc(C)ccc34)C(=O)NC2=O)cc1`, in that order: 7.01 µM and 0.097 µM.
For `COc1ccc2c(c1)c(C1=C(c3ccccc3OC)C(=O)NC1=O)cn2CCCn1ccnc1`, in that order: 2.44 µM and 19.8 µM.
Turning to `COc1ccc2c(c1)c(C1=C(c3ccc4ccccc4c3)C(=O)NC1=O)cn2CCCn1ccnc1`, the figures for the IC50 in assay [1] and in assay [2] were 4.97 µM and 0.059 µM, respectively.
Take `COc1ccc2c(c1)c(C1=C(c3ccccc3C)C(=O)NC1=O)cn2CCCn1ccnc1`: the figures for the IC50 in assay [1] and in assay [2] were 4.34 µM and 8.01 µM, respectively.
For `COc1ccc(C2=C(c3cn(CCCn4ccnc4)c4ccc(Br)cc34)C(=O)NC2=O)cc1OC`, in that order: 3.16 µM and 0.051 µM.
The matching figures for `O=C1NC(=O)C(c2cn(CCCn3ccnc3)c3ccc(Br)cc23)=C1c1ccc(F)cc1`: 2.55 µM and 0.14 µM.
For the compound `O=C1NC(=O)C(c2cn(CCCn3ccnc3)c3ccc(Br)cc23)=C1c1cc(F)c(F)cc1F`, the concentration for half-maximal inhibition (IC50) in assay [1] stood at 2.35 µM; in assay [2], 0.12 µM.
As for `COc1ccc2c(c1)c(C1=C(c3ccc(F)cc3)C(=O)NC1=O)cn2CCCn1ccnc1`, the IC50 in assay [1] was determined as 0.36 µM; in assay [2], 0.15 µM.
For `Cc1ccc2c(C3=C(c4ccc5ccccc5c4)C(=O)NC3=O)cn(CCCn3ccnc3)c2c1`, in that order: 10.8 µM and 0.14 µM.
Regarding `Cc1ccccc1C1=C(c2cn(CCCn3ccnc3)c3cc(Br)ccc23)C(=O)NC1=O`, the IC50 in assay [1] was 3.85 µM; in assay [2] it was 0.14 µM.
Consider `COc1ccccc1C1=C(c2cn(CCCn3ccnc3)c3cc(Br)ccc23)C(=O)NC1=O`, for which the IC50 is 21.7 µM in assay [1] and 0.021 µM in assay [2].
For `O=C1NC(=O)C(c2cn(CCCn3ccnc3)c3ccc(Br)cc23)=C1c1ccc2c(c1)OCO2`, in that order: 2.51 µM and 0.044 µM.
The matching figures for `Cc1ccc(C2=C(c3cn(CCCn4ccnc4)c4ccc(Br)cc34)C(=O)NC2=O)cc1`: 2.08 µM and 0.19 µM.
The matching figures for `Cc1ccc2c(c1)c(C1=C(c3ccccc3C)C(=O)NC1=O)cn2CCCn1ccnc1`: 3.84 µM and 0.073 µM.
Turning to `O=C1NC(=O)C(c2cn(CCCn3ccnc3)c3ccc(Br)cc23)=C1c1ccccc1`, the IC50 in assay [1] was determined as 1.76 µM; in assay [2], 0.069 µM.
Take `Cc1ccc2c(c1)c(C1=C(c3ccc(F)cc3)C(=O)NC1=O)cn2CCCn1ccnc1`: the IC50 in assay [1] stood at 4.36 µM; in assay [2], 23.3 µM.
Take `Cc1ccccc1C1=C(c2cn(CCCn3ccnc3)c3ccc(Br)cc23)C(=O)NC1=O`: the IC50 in assay [1] turned out to be 5.12 µM; in assay [2], 0.087 µM.
On to `O=C1NC(=O)C(c2cn(CCCn3ccnc3)c3ccccc23)=C1c1ccccc1`, for which the IC50 in assay [1] is 2.8 µM; in assay [2] it was 0.014 µM.
For `COc1ccccc1C1=C(c2cn(CCCn3ccnc3)c3ccccc23)C(=O)NC1=O`, the IC50 in assay [1] is 7.32 µM; in assay [2], 19 µM.
The matching figures for `Cc1ccc2c(c1)c(C1=C(c3ccccc3[N+](=O)[O-])C(=O)NC1=O)cn2CCCn1ccnc1`: 3.62 µM and 8.15 µM.
With `COc1ccc(C2=C(c3cn(CCCn4ccnc4)c4ccc(Br)cc34)C(=O)NC2=O)cc1`, the values for the IC50 in assay [1] and in assay [2] were 2.33 µM and 0.11 µM, respectively.
The matching figures for `O=C1NC(=O)C(c2cn(CCCn3ccnc3)c3ccc(Br)cc23)=C1c1cccs1`: 1.04 µM and 0.09 µM.
The matching figures for `O=C1NC(=O)C(c2cn(CCCn3ccnc3)c3ccc(Br)cc23)=C1c1ccc2ccccc2c1`: 2.98 µM and 0.069 µM.
For `Cc1cc(C)c(C2=C(c3cn(CCCn4ccnc4)c4ccc(Br)cc34)C(=O)NC2=O)c(C)c1`, the IC50 in assay [1] was found to be 2.34 µM; in assay [2], 0.11 µM.
The matching figures for `COc1ccc2c(c1)c(C1=C(c3ccccc3F)C(=O)NC1=O)cn2CCCn1ccnc1`: 3.65 µM and 20.8 µM.
With `O=C1NC(=O)C(c2cn(CCCn3ccnc3)c3cc(Br)ccc23)=C1c1ccccc1F`, the IC50 worked out at 4.77 µM in assay [1] and 0.06 µM in assay [2].
The matching figures for `COc1ccccc1C1=C(c2cn(CCCn3ccnc3)c3ccc(Br)cc23)C(=O)NC1=O`: 6.62 µM and 5.2 µM.
The matching figures for `COc1ccc(C2=C(c3cn(CCCn4ccnc4)c4ccc(C)cc34)C(=O)NC2=O)cc1`: 6.13 µM and 19.9 µM.
In the case of `Cc1ccc(C2=C(c3cn(CCCn4ccnc4)c4cc(C)ccc34)C(=O)NC2=O)cc1`, the IC50 in assay [1] worked out at 11.9 µM; in assay [2], 0.048 µM.
`Cc1ccc(C2=C(c3cn(CCCn4ccnc4)c4ccccc34)C(=O)NC2=O)cc1`: the IC50 was found to be 4.34 µM in assay [1] and 15.4 µM in assay [2].
With `O=C1NC(=O)C(c2cn(CCCn3ccnc3)c3cc(Br)ccc23)=C1c1ccc(F)cc1`, the IC50 in assay [1] was 2.81 µM; in assay [2] it was 0.72 µM.
For `Cc1ccc2c(c1)c(C1=C(c3ccc4ccccc4c3)C(=O)NC1=O)cn2CCCn1ccnc1`, in that order: 3.44 µM and 5.14 µM.
Take `Cc1ccc2c(C3=C(c4ccccc4[N+](=O)[O-])C(=O)NC3=O)cn(CCCn3ccnc3)c2c1`: the IC50 in assay [1] turned out to be 69.1 µM; in assay [2], 0.1 µM.
The matching figures for `COc1ccccc1C1=C(c2cn(CCCn3ccnc3)c3ccc(C)cc23)C(=O)NC1=O`: 8.12 µM and 0.065 µM.
The matching figures for `COc1ccc(C2=C(c3cn(CCCn4ccnc4)c4ccc(OC)cc34)C(=O)NC2=O)cc1`: 5.9 µM and 0.014 µM.
The matching figures for `COc1ccc(C2=C(c3cn(CCCn4ccnc4)c4ccccc34)C(=O)NC2=O)cc1`: 7.46 µM and 0.04 µM.
Turning to `COc1ccc2c(c1)c(C1=C(c3ccccc3[N+](=O)[O-])C(=O)NC1=O)cn2CCCn1ccnc1`, the figures for the IC50 in assay [1] and in assay [2] were 9.91 µM and 0.034 µM, respectively.
For `Cc1ccc(C2=C(c3cn(CCCn4ccnc4)c4cc(Br)ccc34)C(=O)NC2=O)cc1`, in that order: 3.44 µM and 0.38 µM.
Turning to `COc1ccc(C2=C(c3cn(CCCn4ccnc4)c4cc(Br)ccc34)C(=O)NC2=O)cc1`, the IC50 in assay [1] amounted to 2.59 µM; in assay [2], 0.23 µM.
For `O=C1NC(=O)C(c2cn(CCCn3ccnc3)c3ccccc23)=C1c1ccccc1F`, in that order: 2.37 µM and 17.7 µM.
The matching figures for `COc1ccc2c(C3=C(c4ccccc4F)C(=O)NC3=O)cn(CCCn3ccnc3)c2c1`: 10.8 µM and 0.011 µM.
The matching figures for `Cc1ccc2c(c1)c(C1=C(c3ccccc3F)C(=O)NC1=O)cn2CCCn1ccnc1`: 3.39 µM and 47.1 µM.
Take `O=C1NC(=O)C(c2cn(CCCn3ccnc3)c3ccccc23)=C1c1ccccc1[N+](=O)[O-]`: the figures for the IC50 in assay [1] and in assay [2] were 2.26 µM and 35.1 µM, respectively.
For the compound `O=C1NC(=O)C(c2cn(CCCn3ccnc3)c3ccccc23)=C1c1ccc(F)cc1`, the Activity in assay [3] is recorded as 73.4%. The IC50 in assay [1] was 1.34 µM; in assay [2], 0.057 µM. In addition, in the assay listed under Mus musculus, the inhibition result was “Active”.
Take `Cc1ccc(C2=C(c3cn(CCCn4ccnc4)c4ccc(C)cc34)C(=O)NC2=O)cc1`: the IC50 in assay [1] was 5.47 µM; in assay [2] it was 7.75 µM.
For `O=C1NC(=O)C(c2cn(CCCn3ccnc3)c3ccccc23)=C1c1ccc2ccccc2c1`, in that order: 3.51 µM and 9.19 µM.
The matching figures for `COc1ccc2c(c1)c(C1=C(c3ccc(C)cc3)C(=O)NC1=O)cn2CCCn1ccnc1`: 9 µM and 0.099 µM.
Turning to `Cc1ccccc1C1=C(c2cn(CCCn3ccnc3)c3ccccc23)C(=O)NC1=O`, the half-inhibitory concentration (IC50) in assay [1] amounted to 4.18 µM; in assay [2], 26.7 µM.
For the compound `O=C1NC(=O)C(c2cn(CCCn3ccnc3)c3ccc(Br)cc23)=C1c1cc(C(F)(F)F)cc(C(F)(F)F)c1`, the IC50 came to 6.88 µM in assay [1] and 0.59 µM in assay [2].
For `CC(C)(C)c1ccc(C2=C(c3cn(CCCn4ccnc4)c4ccc(Br)cc34)C(=O)NC2=O)cc1`, in that order: 8.17 µM and 0.42 µM.
